Assay results published in the supplement of paper PMC10307832.

Experiments:
Assay in all cases: relative viability (nuclei count vs DMSO), 5 days (fraction); higher = more cells survive
NVP-TAE684 + Tozasertib = compound: COc1cc(N2CCC(N3CCN(C)CC3)CC2)ccc1Nc1ncc(Cl)c(Nc2ccccc2S(=O)(=O)C(C)C)n1 [NVP-TAE684] + Cc1cc(Nc2cc(N3CCN(C)CC3)nc(Sc3ccc(NC(=O)C4CC4)cc3)n2)n[nH]1 [Tozasertib] (partner 0.1 µM)
Summary of the method: (§1)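 A single step with final 0.05% Triton X-100, 1% formaldehyde and 1 ug/ml Hoechst fixed the cells and stained nuclei 5 days after treatment. Lung cancer cell lines in 1536-well plates had been treated by pin tool the day after seeding with one drug alone or a fixed anchor-drug dose plus five library-drug doses (not always all listed) in √10 steps, and nuclei were counted on 4× images. Relative viability is the ratio of nuclei in treated wells to nuclei in vehicle wells, taken as the median of duplicate plates.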

NVP-TAE684 + Pemetrexed = compound: COc1cc(N2CCC(N3CCN(C)CC3)CC2)ccc1Nc1ncc(Cl)c(Nc2ccccc2S(=O)(=O)C(C)C)n1 [NVP-TAE684] + Nc1nc2[nH]cc(CCc3ccc(C(=O)N[C@@H](CCC(=O)O)C(=O)O)cc3)c2c(=O)[nH]1 [Pemetrexed] (partner 0.2 µM)
Summary of the method: as §1

NVP-TAE684 + Linsitinib = compound: COc1cc(N2CCC(N3CCN(C)CC3)CC2)ccc1Nc1ncc(Cl)c(Nc2ccccc2S(=O)(=O)C(C)C)n1 [NVP-TAE684] + C[C@]1(O)C[C@@H](c2nc(-c3ccc4ccc(-c5ccccc5)nc4c3)c3c(N)nccn32)C1 [Linsitinib] (partner 1 µM)
Summary of the method: as §1

CUDC-101 + AZD7762 = compound: C#Cc1cccc(Nc2ncnc3cc(OC)c(OCCCCCCC(=O)NO)cc23)c1 [CUDC-101] + NC(=O)Nc1cc(-c2cccc(F)c2)sc1C(=O)N[C@H]1CCCNC1 [AZD7762] (partner 0.2 µM)
Summary of the method: as §1

CUDC-101 + Alpelisib = compound: C#Cc1cccc(Nc2ncnc3cc(OC)c(OCCCCCCC(=O)NO)cc23)c1 [CUDC-101] + Cc1nc(NC(=O)N2CCC[C@H]2C(N)=O)sc1-c1ccnc(C(C)(C)C(F)(F)F)c1 [Alpelisib] (partner 2 µM)
Summary of the method: as §1

Row | Cell Line | relative viability (NVP-TAE684 + Tozasertib; first compound 0.2 µM) | relative viability (NVP-TAE684 + Tozasertib; first compound 0.6325 µM) | relative viability (NVP-TAE684 + Tozasertib; first compound 2 µM) | relative viability (NVP-TAE684 + Pemetrexed; first compound 0.2 µM) | relative viability (NVP-TAE684 + Pemetrexed; first compound 0.6325 µM) | relative viability (NVP-TAE684 + Pemetrexed; first compound 2 µM) | relative viability (NVP-TAE684 + Linsitinib; first compound 0.2 µM) | relative viability (NVP-TAE684 + Linsitinib; first compound 0.6325 µM) | relative viability (NVP-TAE684 + Linsitinib; first compound 2 µM) | relative viability (CUDC-101 + AZD7762; first compound 0.01 µM) | relative viability (CUDC-101 + AZD7762; first compound 0.03162 µM) | relative viability (CUDC-101 + AZD7762; first compound 0.1 µM) | relative viability (CUDC-101 + AZD7762; first compound 0.3162 µM) | relative viability (CUDC-101 + AZD7762; first compound 1 µM) | relative viability (CUDC-101 + Alpelisib; first compound 0.01 µM) | relative viability (CUDC-101 + Alpelisib; first compound 0.1 µM) | relative viability (CUDC-101 + Alpelisib; first compound 0.3162 µM) | relative viability (CUDC-101 + Alpelisib; first compound 1 µM) | relative viability (CUDC-101 + Alpelisib; first compound 0.03162 µM)
1 | NCI-H1650 | 0.317 | 0.385 | 0.165 | 0.382 | 0.35 | 0.353 | – | – | – | – | – | – | – | – | – | – | – | – | –
2 | NCI-H1703 | – | – | – | – | – | – | 0.862 | 0.932 | 0.588 | 0.141 | 0.117 | 0.11 | 0.116 | 0.125 | 0.303 | 0.322 | 0.53 | 0.506 | –
3 | NCI-H727 | 0.495 | 0.532 | 0.32 | – | – | – | 0.331 | 0.284 | 0.216 | 0.627 | 0.403 | 0.562 | 0.619 | 0.476 | 0.59 | 0.698 | 0.595 | 0.295 | 0.478
4 | NCI-H838 | 0.311 | 0.233 | 0.226 | 0.25 | 0.239 | 0.17 | 1.22 | 0.955 | 0.372 | 0.939 | 0.907 | 0.94 | 0.952 | 0.888 | 1.01 | 1.06 | 1.08 | 0.914 | 0.89
5 | SK-LU-1 | 0.333 | 0.305 | 0.216 | 0.826 | 1 | 0.575 | 1.19 | 1.2 | 0.693 | – | – | – | – | – | 1.18 | 1.11 | 0.812 | 0.505 | 1.05
6 | NCI-H2009 | 0.77 | 0.704 | 0.376 | 1.06 | 1.01 | 0.894 | 1.08 | 1.21 | 0.986 | – | – | – | – | – | 1.13 | 1.14 | 1.07 | 1.04 | 1.1
7 | NCI-H2170 | 0.735 | 0.632 | 0.543 | 0.274 | 0.27 | 0.228 | – | – | – | 1.07 | 0.839 | 0.819 | 0.892 | 0.723 | 0.88 | 0.724 | 0.658 | 0.47 | 0.744
8 | EBC-1 | – | – | – | – | – | – | 0.784 | 0.785 | 0.745 | – | – | – | – | – | 0.796 | 0.696 | 0.721 | 0.319 | 0.709
9 | NCI-H2342 | 0.572 | 0.485 | 0.297 | 0.93 | 0.771 | 0.493 | – | – | – | 0.507 | 0.459 | 0.51 | 0.407 | 0.353 | – | – | – | – | –
10 | NCI-H661 | 0.373 | 0.341 | 0.352 | 0.959 | 0.924 | 0.894 | 0.454 | 0.58 | 0.625 | – | – | – | – | – | 0.792 | 0.794 | 0.575 | 0.595 | 0.609
11 | SW 900 | 0.576 | 0.531 | 0.322 | 0.548 | 0.443 | 0.449 | – | – | – | 0.57 | 0.476 | 0.568 | 0.716 | 0.555 | – | – | – | – | –
12 | IA-LM | – | – | – | – | – | – | 0.386 | 0.503 | 0.627 | – | – | – | – | – | 0.676 | 0.678 | 0.745 | 0.388 | 0.769
13 | SK-MES-1 | 0.958 | 0.892 | 0.48 | 0.999 | 0.855 | 0.686 | 0.985 | 1.05 | 0.837 | – | – | – | – | – | 0.798 | 0.879 | 0.874 | 0.592 | 0.877
14 | COR-L 105 | 0.364 | 0.315 | 0.23 | 1.01 | 0.98 | – | 0.915 | – | 0.625 | – | – | – | – | – | 1.17 | 0.88 | 0.829 | 0.52 | 0.848
15 | NCI-H522 | 0.53 | 0.692 | 0.509 | 1.13 | 1.07 | 0.799 | – | – | – | 0.932 | 0.753 | 0.791 | 0.75 | 0.689 | – | – | – | – | –
16 | NCI-H1299 | – | – | – | – | – | – | 0.915 | 1.02 | 0.909 | – | – | – | – | – | 1.08 | 1.11 | 1.06 | 1.05 | 1
17 | ABC-1 | 0.17 | 0.147 | 0.127 | – | – | – | 0.825 | 0.742 | 0.358 | 0.889 | 0.807 | 0.763 | 0.852 | 0.334 | 1.15 | 0.819 | 0.609 | 0.572 | 1.07
18 | NCI-H2228 | 0.196 | 0.129 | 0.136 | 0.29 | 0.332 | 0.121 | 0.458 | 0.321 | 0.285 | – | – | – | – | – | 0.795 | 0.625 | 0.563 | 0.491 | 0.802
19 | SW 1573 | 0.216 | 0.16 | 0.139 | 0.843 | 0.732 | 0.396 | 0.907 | 0.692 | 0.795 | – | – | – | – | – | 0.861 | 0.852 | 1.08 | 0.739 | 0.797
20 | NCI-H1623 | 0.442 | 0.427 | 0.393 | – | – | – | – | – | – | – | – | – | – | – | – | – | – | – | –
21 | COR-L23 | 0.197 | 0.223 | 0.138 | 0.205 | 0.203 | 0.197 | 0.871 | 0.937 | 0.419 | – | – | – | – | – | 0.968 | 0.661 | 0.617 | 0.349 | 0.753
22 | NCI-H1563 | – | – | – | 0.757 | 0.692 | 0.654 | 1.07 | 1.25 | – | – | – | – | – | – | 0.919 | 0.925 | 0.942 | 0.882 | 0.815
23 | NCI-H1648 | 0.413 | 0.458 | 0.262 | – | – | 0.415 | – | – | – | 0.846 | 0.566 | 0.646 | 0.45 | 0.361 | – | – | – | – | –
24 | NCI-H520 | 0.408 | 0.466 | 0.358 | 0.694 | 0.823 | 0.326 | 0.911 | 0.986 | 0.45 | – | – | – | – | – | 1.09 | 0.791 | 0.706 | 0.373 | –
25 | A549 | – | – | – | – | – | – | 0.539 | 0.603 | 0.532 | – | – | – | – | – | 0.773 | 0.605 | 0.948 | 0.618 | 0.757
26 | Calu-6 | – | – | – | – | – | – | 0.805 | 0.935 | 0.634 | – | – | – | – | – | 1.02 | 0.986 | 1 | 0.763 | 0.939
